# Target: T1, NIK (Homo sapiens, UniProt Q99558)
# T1 construct: Both assays utilize a truncated form of NIK containing only the catalytic domain; made in house; host or cells: baculovirus expression system (insect cells implied)
# Assay: homogenous time resolved fluorescence (HTRF) assay for NIK Ki measurement
# Assay type: biochemical
# Conditions: truncated NIK (catalytic domain only), autophosphorylation; 10 nM enzyme; 20, 100, 200 or 500 μM ATP; room temperature, 2 hours; read-out: Ki activity in the homogenous time resolved fluorescence (HTRF) assay for NIK
# Experimental: Two formats of biochemical assays are implemented: (1) chemiluminescent (CL) assay for NIK IC50 determination; (2) homogenous time resolved fluorescence (HTRF) assay for NIK Ki measurement. […] The NIK proteins are purified with baculovirus expression system and further biotinylated with N-hydroxysuccinamide biotin ester (Sigma). […] The reaction mixtures are then immobilized on a Streptavidin-coated plate (Pierce). […] For the HTRF assay, 10 nM of enzyme are incubated with compounds in the presence of 20, 100, 200, or 500 μM of ATP in a buffer with 20 mM of Hepes pH7.5, 20 mM of MgCl2, 0.2% of Tween 20 and 1 mM of DTT at room temperature for 2 hours.
# T1 sequence (Q99558 400-655 limits assumed): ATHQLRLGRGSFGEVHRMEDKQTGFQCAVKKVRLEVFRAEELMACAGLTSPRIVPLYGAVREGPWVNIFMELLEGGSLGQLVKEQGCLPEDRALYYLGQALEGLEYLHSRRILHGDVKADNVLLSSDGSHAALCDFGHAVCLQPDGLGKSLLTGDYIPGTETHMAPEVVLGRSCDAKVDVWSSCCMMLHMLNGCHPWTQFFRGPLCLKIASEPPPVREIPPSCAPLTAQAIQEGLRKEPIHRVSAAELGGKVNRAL
row,SMILES,Ki [nM]
1,"Cc1cc(C(C)(O)C#Cc2ccc3c(c2)N(c2nc(N)ncc2Cl)CC3)no1 (racemic) [Example 23, 4-(1-(2-amino-5-chloropyrimidin-4-yl)indolin-6-yl)-2-(5-methylisoxazol-3-yl)but-3-yn-2-ol]",< 1000
2,"CC(O)(C#Cc1ccc2c(c1)N(c1nc(N)ncc1Cl)CC2(C)C)c1nccs1 (racemic) [Example 39, 4-(1-(2-amino-5-chloro-4-pyrimidinyl)-3,3-dimethyl-2,3-dihydro-1H-indol-6-yl)-2-(1,3-thiazol-2-yl)-3-Butyn-2-ol]",< 1000
3,"Cc1cc([C@@](C)(O)C#Cc2ccc3c(c2)N(c2nc(N)ncc2Cl)CC3)no1 (single isomer, unassigned) [Example 24]",1000 to 30000
4,"Cc1cc([C@](C)(O)C#Cc2ccc3c(c2)N(c2nc(N)ncc2Cl)CC3)no1 (single isomer, unassigned) [Example 25]",< 1000
5,"Cc1cc([C@@](C)(O)C#Cc2ccc3c(c2)N(c2nc(N)ncc2Cl)CC3)on1 (single isomer, unassigned) [Example 28]",1000 to 30000
6,"Cc1cc([C@](C)(O)C#Cc2ccc3c(c2)N(c2nc(N)ncc2Cl)CC3)on1 (single isomer, unassigned) [Example 29]",< 1000
7,"Cc1cc([C@@](C)(O)C#Cc2ccc3c(c2)N(c2nc(N)ncc2Cl)CC32CCOCC2)on1 (single isomer, unassigned) [Example 30]",< 1000
8,"Cc1cc([C@](C)(O)C#Cc2ccc3c(c2)N(c2nc(N)ncc2Cl)CC32CCOCC2)on1 (single isomer, unassigned) [Example 31]",< 1000
9,"CC1(C)CN(c2nc(N)ncc2Cl)c2cc(C#C[C@@](C)(O)c3nccs3)ccc21 (single isomer, unassigned) [Example 40]",< 1000
10,"CC1(C)CN(c2nc(N)ncc2Cl)c2cc(C#C[C@](C)(O)c3nccs3)ccc21 (single isomer, unassigned) [Example 41]",1000 to 30000
11,"Cn1cncc1C(O)C#Cc1ccc2c(c1)N(c1nc(N)ncc1Cl)CC2(C)C (single isomer, unassigned) [Example 42, (1R*)-3-(1-(2-amino-5-chloro-4-pyrimidinyl)-3,3-dimethyl-2,3-dihydro-1H-indol-6-yl)-1-(1-methyl-1H-imidazol-5-yl)-2-propyn-1-ol]",1000 to 30000
12,"Cn1cnc([C@H](O)C#Cc2ccc3c(c2)N(c2nc(N)ncc2Cl)CC3(C)C)c1 (single isomer, unassigned) [Example 47, (1R*)-3-(1-(2-amino-5-chloro-4-pyrimidinyl)-3,3-dimethyl-2,3-dihydro-1H-indol-6-yl)-1-(1-methyl-1H-imidazol-4-yl)-2-propyn-1-ol]",< 1000
13,"C[C@]1(CCO)CN(c2nc(N)ncc2Cl)c2cc(C#CC3(O)CCCC3)ccc21 (single isomer, unassigned) [Example 52, 1-(03R*)-1-(2-amino-5-chloro-4-pyrimidinyl)-3-(2-hydroxyethyl)-3-methyl-2,3-dihydro-1H-indol-6-yl)ethynyl)cyclopentanol]",< 1000
14,"CC(O)(C#Cc1ccc2c(c1)N(c1nc(N)ncc1Cl)CC2(C)CO)c1nccs1 (single isomer, unassigned) [Example 53, 4-((3 S*)-1-(2-amino-5-chloro-4-pyrimidinyl)-3-(hydroxymethyl)-3-methyl-2,3-dihydro-1H-indol-6-yl)-2-(1,3-thiazol-2-yl)-3-butyn-2-ol]",< 1000

# Now from value to compound:
row,Ki [nM],SMILES
1,< 1000,"CN1CC2(C1)CN(c1nc(N)ncc1Cl)c1cc(C#CC(C)(O)c3nccs3)ccc12 (racemic) [Example 181, (rac)-4-(1′-(2-amino-5-chloropyrimidin-4-yl)-1-methylspiro[azetidine-3,3′-indoline]-6′-yl)-2-(thiazol-2-yl)but-3-yn-2-ol]"
2,< 1000,"CN1CCC2(C1)CN(c1nc(N)ncc1Cl)c1cc(C#CC3(O)CCCC3)ccc12 (racemic) [Example 188, 1-((1-(2-Amino-5-chloro-4-pyrimidinyl)-r-methyl-1,2-dihydrospiro[indole-3,3′-pyrrolidin]-6-yl)ethynyl)cyclopentanol]"
3,< 1000,"CN1CCC2(C1)CN(c1nc(N)ncc1F)c1cc(C#CC3(O)CCCC3)ccc12 (racemic) [Example 190, (rac)-1-((1-(2-Amino-5-fluoro-4-pyrimidinyl)-1′-methyl-1,2-dihydrospiro[indole-3,3′-pyrrolidin]-6-yl)ethynyl)cyclopentanol]"
4,< 1000,"CC(O)(C#Cc1ccc2c(c1)N(c1nc(N)ncc1Cl)CC21CCOC1)c1nccs1 (racemic) [Example 198, 4-(1′-(2-Amino-5-chloro-4-pyrimidinyl)-1′,2′,4,5-tetrahydrospiro[furan-3,3′-indol]-6′-yl)-2-(1,3-thiazol-2-yl)-3-butyn-2-ol]"
5,< 1000,"CC(O)(C#Cc1ccc2c(c1)N(c1nc(N)ncc1Cl)CC21CCOCC1)c1nccs1 (racemic) [Example 208, (rac)-4-(1-(2-Amino-5-chloro-4-pyrimidinyl)-1,2,2′,3′,5′,6′-hexahydrospiro[indole-3,4′-pyran]-6-yl)-2-(1,3-thiazol-2-yl)-3-butyn-2-ol]"
6,< 1000,"Cc1cc(C(C)(O)C#Cc2ccc3c(c2)N(c2nc(N)ncc2Cl)CC32CCOCC2)no1 (racemic) [Example 210, (rac)-4-(1-(2-Amino-5-chloro-4-pyrimidinyl)-1,2,2′,3′,5′,6′-hexahydrospiro[indole-3,4′-pyran]-6-yl)-2-(5-methyl-3-isoxazolyl)-3-butyn-2-ol]"
7,< 1000,"CC(O)(C#Cc1ccc2c(c1)N(c1nc(N)ncc1Cl)CC21CCSCC1)c1nccs1 (racemic) [Example 214, (rac)-4-(1-(2-Amino-5-chloro-4-pyrimidinyl)-1,2,2′,3′,5′,6′-hexahydrospiro[indole-3,4′-thiopyran]-6-yl)-2-(1,3-thiazol-2-yl)-3-butyn-2-ol]"
8,< 1000,"CC(O)(C#Cc1ccc2c(c1)N(c1nc(N)ncc1Cl)CC21CCS(=O)(=O)CC1)c1nccs1 (racemic) [Example 215, (rac)-4-(1-(2-Amino-5-chloro-4-pyrimidinyl)-1′,1′-dioxido-1,2,2′,3′,5′,6′-hexahydrospiro[indole-3,4′-thiopyran]-6-yl)-2-(1,3-thiazol-2-yl)-3-butyn-2-ol]"
9,< 1000,"Cc1cc(C(C)(O)C#Cc2ccc3c(c2)N(c2nc(N)ncc2Cl)CC32CCS(=O)(=O)CC2)no1 (racemic) [Example 216, (rac)-4-(1-(2-Amino-5-chloro-4-pyrimidinyl)-1′,1′-dioxido-1,2,2′,3′,5′,6′-hexahydrospiro[indole-3,4′-thiopyran]-6-yl)-2-(5-methyl-3-isoxazolyl)-3-butyn-2-ol]"
10,< 1000,"CN1CC[C@@]2(C1)CN(c1nc(N)ncc1Cl)c1cc(C#C[C@@](C)(O)c3nccs3)ccc12 (relative stereo) [Example 195, (2R)-4-((3R*)-1-(2-Amino-5-chloro-4-pyrimidinyl)-1′-methyl-1,2-dihydrospiro[indole-3,3′-pyrrolidin]-6-yl)-2-(1,3-thiazol-2-yl)-3-butyn-2-ol]"
11,< 1000,"CN1CC[C@]2(C1)CN(c1nc(N)ncc1Cl)c1cc(C#C[C@@](C)(O)c3nccs3)ccc12 (relative stereo) [Example 197, (2R)-4-((3S*)-1-(2-Amino-5-chloro-4-pyrimidinyl)-1′-methyl-1,2-dihydrospiro[indole-3,3′-pyrrolidin]-6-yl)-2-(1,3-thiazol-2-yl)-3-butyn-2-ol]"
12,< 1000,"C[C@@](O)(C#Cc1ccc2c(c1)N(c1nc(N)ncc1Cl)C[C@@]21CCOC1)c1nccs1 (relative stereo) [Example 200, (2R)-4-((3R*)-1′-(2-Amino-5-chloro-4-pyrimidinyl)-1′,2′,4,5-tetrahydrospiro[furan-3,3′-indol]-6′-yl)-2-(1,3-thiazol-2-yl)-3-butyn-2-ol]"
13,< 1000,"CC1(CO)CN(c2nc(N)ncc2Cl)c2cc(C#CC3(O)CCCC3)ccc21 (single isomer, unassigned) [Example 55, 1-(((3R*)-1-(2-amino-5-chloro-4-pyrimidinyl)-3-(hydroxymethyl)-3-methyl-2,3-dihydro-1H-indol-6-yl)ethynyl)cyclopentanol]"
14,< 1000,"CC(C)(C#Cc1ccc2c(c1)N(c1nc(N)ncc1Cl)CC2(C)CO)C(=O)OCc1ccccc1 (single isomer, unassigned) [Example 57, benzyl 4-((3S*)-1-(2-amino-5-chloro-4-pyrimidinyl)-3-(hydroxymethyl)-3-methyl-2,3-dihydro-1H-indol-6-yl)-2,2-dimethyl-3-butynoate]"
15,< 1000,"CC(C)(C#Cc1ccc2c(c1)N(c1nc(N)ncc1Cl)CC2(C)CO)CO (single isomer, unassigned) [Example 58, 4-((3S*)-1-(2-amino-5-chloro-4-pyrimidinyl)-3-(hydroxymethyl)-3-methyl-2,3-dihydro-1H-indol-6-yl)-2,2-dimethyl-3-Butyn-1-ol]"
16,< 1000,"C[C@@](O)(C#Cc1ccc2c(c1)N(c1nc(N)ncc1Cl)CC2(CO)CO)c1nccs1 (single isomer, unassigned) [Example 61]"
17,< 1000,"COCC1(C)CN(c2nc(N)nc3[nH]cnc23)c2cc(C#CC3(O)CCCC3)ccc21 (single isomer, unassigned) [Example 70, 1-(((3R*)-1-(2-amino-9H-purin-6-yl)-3-(methoxymethyl)-3-methyl-2,3-dihydro-1H-indol-6-yl)ethynyl)cyclopentanol]"
18,< 1000,"C[C@@](O)(C#Cc1ccc2c(c1)N(c1nc(N)ncc1Cl)CC21COC1)c1nccs1 (single isomer, unassigned) [Example 82]"

# Source: patent publication US20110086834A1, “ALKYNYL ALCOHOLS AS KINASE INHIBITORS” (AMGEN INC., priority 2008, published 2011)
